The results in this text go back to patent publication US20110086759A1, “CHEMICAL COMPOUNDS” (SYNGENTA CROP PROTECTION, INC., priority 2007, published 2011).

Common to all, as to assay type: in vivo
The test system of experiment [1] is Ipomea hederaceae (IPOHE). The experiment can be described thus: Pre-emergence biological efficacy, glasshouse pot test. The following applies: Ipomoea hederacea, 312 h, evaluated after 13 days (100=total damage; 0=no damage), read-out: Percentage damage IPOHE; for pest or weed control at 1000 g/ha: pre-emergence, 1,000 g/ha. The essentials: (§1)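 Visual phytotoxicity (0 no damage, 100 total damage) assessed 13 d after treatment. Soil-sown pots sprayed one day post-sowing; dose 1000 or 250 g/ha; formulation in acetone/water 50:50, 0.5% Tween 20.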

Experiment [2] relates to Amaranthus retoflexus (AMARE). The experiment is described as above. Particulars: Amaranthus retroflexus, 312 h, evaluated after 13 days (100=total damage; 0=no damage), read-out: Percentage damage AMARE; for pest or weed control at 1000 g/ha: pre-emergence, 1,000 g/ha. In outline:
as §1

The test system of experiment [3] is Echinochloa crus-galli (ECHCG). The experiment is described as above. Particulars: 312 h, evaluated after 13 days (100=total damage; 0=no damage), read-out: Percentage damage ECHCG; for pest or weed control at 1000 g/ha: pre-emergence, 1,000 g/ha. The essentials: as §1
For experiment [4], the system named is Setaria faberi (SETFA). The experiment is described as above. Particulars: 312 h, evaluated after 13 days (100=total damage; 0=no damage), read-out: Percentage damage SETFA; for pest or weed control at 1000 g/ha: pre-emergence, 1,000 g/ha. The essentials: as §1
Experiment [5] relates to Alopecurus myosuroides (ALOMY). Described as above. Particulars: 312 h, evaluated after 13 days (100=total damage; 0=no damage), read-out: Percentage damage ALOMY; for pest or weed control at 1000 g/ha: pre-emergence, 1,000 g/ha. The essentials: as §1
The subject of experiment [6] is Solanum nigrum (SOLNI). The experiment is described as above. The following applies: 312 h, evaluated after 13 days (100=total damage; 0=no damage), read-out: Percentage damage SOLNI; for pest or weed control at 1000 g/ha: pre-emergence, 1,000 g/ha. The essentials: as §1
The subject of experiment [7] is Ipomea hederaceae (IPOHE). The experiment can be described thus: Post-emergence biological efficacy, glasshouse pot test. Particulars: Ipomoea hederacea, 312 h, evaluated after 13 days (100=total damage; 0=no damage), read-out: Percentage damage caused to weed species, IPOHE; for pest or weed control at 1000 g/ha: post-emergence, 1,000 g/ha. The essentials: (§2)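 Pot-grown weeds were sprayed 8 days after sowing with test compound in acetone/water (50:50) with 0.5% Tween 20 at 1000 or 250 g/ha. Glasshouse at 24/16° C day/night, 14 h light, 65% humidity. Damage scored 0-100 (100 = total damage) after 13 days.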

Experiment [8] concerns Amaranthus retoflexus (AMARE). Described as above. The following applies: Amaranthus retroflexus, 312 h, evaluated after 13 days (100=total damage; 0=no damage), read-out: Percentage damage caused to weed species, AMARE; for pest or weed control at 1000 g/ha: post-emergence, 1,000 g/ha. The essentials:
as §2

Experiment [9] deals with Echinochloa crus-galli (ECHCG). Described as above. The following applies: 312 h, evaluated after 13 days (100=total damage; 0=no damage), read-out: Percentage damage caused to weed species, ECHCG; for pest or weed control at 1000 g/ha: post-emergence, 1,000 g/ha. The essentials:
as §2

Experiment [10] relates to Setaria faberi (SETFA). The experiment is described as above. Particulars: 312 h, evaluated after 13 days (100=total damage; 0=no damage), read-out: Percentage damage caused to weed species, SETFA; for pest or weed control at 1000 g/ha: post-emergence, 1,000 g/ha. The essentials:
as §2

Experiment [11] has as its system Alopecurus myosuroides (ALOMY). Described as above. The following applies: 312 h, evaluated after 13 days (100=total damage; 0=no damage), read-out: Percentage damage caused to weed species, ALOMY; for pest or weed control at 1000 g/ha: post-emergence, 1,000 g/ha. The essentials: as §2
Experiment [12] concerns Solanum nigrum (SOLNI). The experiment is described as above. Particulars: 312 h, evaluated after 13 days (100=total damage; 0=no damage), read-out: Percentage damage caused to weed species, SOLNI; for pest or weed control at 1000 g/ha: post-emergence, 1,000 g/ha. In outline:
as §2

As to `COC(=O)c1nc(C2CC2)nc(N[C@@H](C)c2ccc(OC)cc2)c1Cl` [4-181 (S), (S)-5-Chloro-2-cyclopropyl-6-methoxycarbonyl-4-[1-(4-methoxy-phenyl)ethylamino]-pyrimidine], the pest or weed control at 1000 g/ha in [1] amounted to 80%; in experiment [2], 60%; in [3], 50%; in [4], 0%; in experiment [5] it was 20%; in [6], 60%. Further, the pest or weed control at 1000 g/ha came out at 90% in experiment [7]; 100% in experiment [8]; 50% in experiment [9]; 40% in experiment [10]; 30% in experiment [11]; 90% in [12].

Turning to `COC(=O)c1nc(C2CC2)nc(NC(C)c2cccc(C(F)(F)F)c2)c1Cl` (stereo not drawn) [Compound 4-179, 5-Chloro-2-cyclopropyl-6-methoxycarbonyl-4-[1-(3-trifluoro-methylphenyl)ethyl-amino]pyrimidine], the pest or weed control at 250 g/ha in experiment [1] (pre-emergence, 250 g/ha) is 0%; in experiment [2] (pre-emergence, 250 g/ha) it was 50%; in [3] (pre-emergence, 250 g/ha), 0%; in [4] (pre-emergence, 250 g/ha), 0%; in experiment [5] (pre-emergence, 250 g/ha) it was 0%; in experiment [6] (pre-emergence, 250 g/ha), 0%. In addition, the pest or weed control at 250 g/ha in experiment [7] (post-emergence, 250 g/ha) worked out at 60%; in [8] (post-emergence, 250 g/ha) it was 70%; in experiment [9] (post-emergence, 250 g/ha), 40%; in experiment [10] (post-emergence, 250 g/ha) it was 50%; in experiment [11] (post-emergence, 250 g/ha), 30%; in experiment [12] (post-emergence, 250 g/ha) it was 80%.

As to `COC(=O)c1nc(C2CC2)nc(N[C@@H](C)C(=O)OCc2ccccc2)c1Cl` [4-272 (S), 5-Chloro-2-cyclopropyl-6-methoxycarbonyl-4-[(1S)-1-(phenylmethoxy-carbonyl)ethylamino]-pyrimidine], the pest or weed control at 1000 g/ha in experiment [1] was 70%; in [2], 70%; in [3] it was 30%; in [4], 20%; in experiment [5], 10%; in experiment [6], 80%. In addition, the pest or weed control at 1000 g/ha in experiment [7] came out at 60%; in [8], 100%; in experiment [9], 30%; in experiment [10], 60%; in [11], 20%; in experiment [12], 80%.

`COC(=O)c1nc(C2CC2)nc(N[C@@H](CO)Cc2ccccc2)c1Cl` [4-273 (R), 5-Chloro-2-cyclopropyl-4-[(1R)-1-hydroxymethyl-2-phenyl-ethylamino]-6-methoxycarbonyl-pyrimidine]: the pest or weed control at 1000 g/ha in [1] came to 100%; in [2] it was 80%; in [3] it was 60%; in [4], 70%; in experiment [5] it was 50%; in [6] it was 80%. In addition, the pest or weed control at 1000 g/ha in [7] came out at 90%; in experiment [8], 100%; in [9] it was 60%; in experiment [10], 60%; in experiment [11], 30%; in [12], 90%.

As for `COC(=O)c1nc(C2CC2)nc(NCC(O)c2cccc(O)c2)c1Cl` (stereo not drawn) [Compound 4-258, 5-Chloro-2-cyclopropyl-4-[2-hydroxy-2-(3-hydroxyphenyl)-ethylamino]-6-methoxycarbonyl-pyrimidine], the pest or weed control at 1000 g/ha came to 100% in experiment [1]; 100% in [2]; 30% in experiment [3]; 40% in experiment [4]; 30% in experiment [5]; 100% in experiment [6]. The pest or weed control at 1000 g/ha amounted to 90% in [7]; 100% in experiment [8]; 60% in experiment [9]; 70% in [10]; 30% in [11]; 80% in [12].
